Assay results as given in PMC5050210, “BdorOBP83a-2 Mediates Responses of the Oriental Fruit Fly to Semiochemicals” (Frontiers in Physiology, 2016).
pIC50, pKd: −log10 of the molar value.

How the values were obtained:
BdorOBP83a-2 [1] = molecular target: T1, BdorOBP83a-2 (Bactrocera dorsalis, UniProt A0A0G2UEQ3); assay: biochemical; design: Fluorescence competitive displacement of 1-NPN from recombinant OBP, 25 °C, pH 7.4; competitor 5-50 uM; conditions: 1-NPN displacement, 2 uM protein, 2 uM 1-NPN
T1 construct: gene OBP83a-2; mature protein without signal peptide
T1 sequence (A0A0G2UEQ3 24-148): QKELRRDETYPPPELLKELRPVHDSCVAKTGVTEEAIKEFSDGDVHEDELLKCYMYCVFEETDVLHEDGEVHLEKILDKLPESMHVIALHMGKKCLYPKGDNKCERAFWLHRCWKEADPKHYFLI
Procedure: (§1) Fluorescence spectra were measured on an F-7000 FL Fluorescence Spectrophotometer (Hitachi) in a 10 mm light path quartz cuvette at 25°C. […] The emission spectra were recorded between 350 and 500 nm. […] All measurements were performed in triplicates and mean values and standard errors are calculated. […] To determine the roles of specific OBPs in recognition of attractants in B. dorsalis, recombinant proteins of selected antenna-abundant OBPs and CSPs were obtained using a prokaryotic expression system (Figure 5). Purified OBPs and CSPs were used to determine binding affinity of each protein via fluorescence competitive binding assays. Thirteen pure attractant compounds were tested against each recombinant protein. […] PCR fragments were digested with both EcoRI and XhoI enzymes and the released DNA fragments were cloned into a PET-32a vector (Invitrogen), which were used to transform BL21 (DE3) E. coli competent cells (Invitrogen). […] LB/ampicillin medium overnight at 37°C. Protein expression was induced with 1 mM IPTG for 3 h when the culture had reached an OD600-value of 0.7–0.9. Cells were then harvested by centrifugation and lysed by sonication. […] Renaturation of purified proteins were accomplished by gradient dilution at 4°C. His-tag was removed by digestion with recombinant enterokinase (Novagen) and the digested mixtures were passed through a HisTrap affinity column to remove any undigested protein. At each step during protein preparation and purification, protein extracts, and purified proteins were examined on 15% SDS-PAGE.

BdorOBP83a-1 [2] = molecular target: T2, BdorOBP83a-1 (Bactrocera dorsalis, UniProt A0A0G2UGI4); assay: biochemical; design: Fluorescence competitive displacement of 1-NPN from recombinant OBP, 25 °C, pH 7.4; competitor 5-50 uM; conditions: 1-NPN displacement, 2 uM protein, 2 uM 1-NPN, extrapolated
T2 construct: gene OBP83a-1; mature protein without signal peptide
T2 sequence (A0A0G2UGI4 32-155): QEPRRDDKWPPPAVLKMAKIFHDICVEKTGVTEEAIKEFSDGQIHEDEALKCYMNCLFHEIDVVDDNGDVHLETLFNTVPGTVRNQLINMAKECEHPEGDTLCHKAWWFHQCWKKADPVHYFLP
Procedure: as §1

BdorOBP83a-2 [3] = molecular target: T1, BdorOBP83a-2; assay: biochemical; design: Fluorescence competitive displacement of 1-NPN from recombinant OBP, 25 °C, pH 7.4; competitor 5-50 uM; conditions: 1-NPN displacement, Kd from IC50
Procedure: (§2) Fluorescence spectra were measured on an F-7000 FL Fluorescence Spectrophotometer (Hitachi) in a 10 mm light path quartz cuvette at 25°C. All were excited at 337 nm with emission and excitation slit of both 10 nm. The emission spectra were recorded between 350 and 500 nm. […] All measurements were performed in triplicates and mean values and standard errors are calculated. […] To determine the roles of specific OBPs in recognition of attractants in B. dorsalis, recombinant proteins of selected antenna-abundant OBPs and CSPs were obtained using a prokaryotic expression system (Figure 5). Purified OBPs and CSPs were used to determine binding affinity of each protein via fluorescence competitive binding assays. Thirteen pure attractant compounds were tested against each recombinant protein. […] Except for BdorCSP3 and BdorOBP84a-2, all remaining OBPs could bind to the tested compounds (Figure 6; Table S8). […] Alternatively they might be involved in functions other than odor detection. […] Overall, we observed lower binding affinity with our recombinant proteins and tested attractants. […] In other studies, much higher affinity has been reported. For example, competitive binding assays with a lepidopteran pheromone-binding protein can reach nearly 100% displacement (Hooper et al., [2009]; Gu et al., [2013]), and competitive binding assays with an aphid OBP (OBP7) can reach about 80% displacement with the alarm pheromone (E)-ss-farnesene (Sun et al., [2012]). The biological significance of the observed lower affinity with B. doralis OBPs here remains to be determined. It could be due to diverse binding mechanisms between different functional OBPs and the corresponding compounds. Alternatively, BdorOBP83a-2 may […] The sequences of BdorOBPs and BdorCSPs encoding mature proteins (without signal peptide) were amplified by PCR using specific primers carrying a restriction site EcoRI or XhoI (Table S2). PCR fragments were digested with both EcoRI and XhoI enzymes and the released DNA fragments were cloned into a PET-32a vector (Invitrogen), which were used to transform BL21 (DE3) E. coli competent cells (Invitrogen). A selected positive clone was grown overnight in 5 mL [compound left out] LB/ampicillin medium overnight at 37°C. Protein expression was induced with 1 mM IPTG for 3 h when the culture had reached an OD600-value of 0.7–0.9. Cells were then harvested by centrifugation and lysed by sonication. After sonication and centrifugation, most recombinant proteins were present in inclusion bodies. […] Renaturation of purified proteins were accomplished by gradient dilution at 4°C. His-tag was removed by digestion with recombinant enterokinase (Novagen) and the digested mixtures were passed through a HisTrap affinity column to remove any undigested protein. At each step during protein preparation and purification, protein extracts, and purified proteins were examined on 15% SDS-PAGE.

BdorOBP56h [4] = molecular target: T3, BdorOBP56h (Bactrocera dorsalis, UniProt A0A0G2UMU0); assay: biochemical; design: Fluorescence competitive displacement of 1-NPN from recombinant OBP, 25 °C, pH 7.4; competitor 5-50 uM; conditions: 1-NPN displacement; for pIC50: 2 uM protein, 2 uM 1-NPN, extrapolated, read-out: BdorOBP56 / IC50; for pKd: Kd from IC50, extrapolated, read-out: BdorOBP56 / Kd
T3 construct: gene OBP56h; mature protein without signal peptide
T3 sequence (A0A0G2UMU0 20-136): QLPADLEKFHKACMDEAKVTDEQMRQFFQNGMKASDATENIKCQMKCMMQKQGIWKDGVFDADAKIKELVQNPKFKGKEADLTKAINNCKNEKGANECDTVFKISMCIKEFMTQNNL
Procedure: as §2

BdorOBP83a-1 [5] = molecular target: T2, BdorOBP83a-1; assay: biochemical; design: Fluorescence competitive displacement of 1-NPN from recombinant OBP, 25 °C, pH 7.4; competitor 5-50 uM; conditions: 1-NPN displacement, Kd from IC50, extrapolated
Procedure: as §2

BdorOBP84a-1 [6] = molecular target: T4, BdorOBP84a-1 (Bactrocera dorsalis, UniProt A0A0G2UGI7); assay: biochemical; design: Fluorescence competitive displacement of 1-NPN from recombinant OBP, 25 °C, pH 7.4; competitor 5-50 uM; conditions: 1-NPN displacement; for pIC50: 2 uM protein, 2 uM 1-NPN, extrapolated; for pKd: Kd from IC50, extrapolated
T4 construct: gene OBP84a-1; mature protein without signal peptide
T4 sequence (A0A0G2UGI7 25-167): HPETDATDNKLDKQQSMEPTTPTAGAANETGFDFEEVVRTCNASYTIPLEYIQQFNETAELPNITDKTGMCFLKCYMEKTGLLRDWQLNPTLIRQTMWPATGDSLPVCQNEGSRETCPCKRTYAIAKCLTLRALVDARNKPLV
Procedure: as §2

BdorOBP83a-2 [7] = molecular target: T1, BdorOBP83a-2; assay: 1-NPN fluorescence competition; format: binding; conditions: 50 mM Tris-HCl pH 7.4, 25°C; 2 μM protein, 2 μM 1-NPN; competitive displacement
BdorOBP84a-1 [8] = molecular target: T4, BdorOBP84a-1; assay: 1-NPN fluorescence competition; format: binding; conditions: 50 mM Tris-HCl pH 7.4, 25°C; 2 μM protein, 2 μM 1-NPN; competitive displacement
Text: 1-NPN fluorescence competition on BdorOBP84a-1 | all remaining OBPs could bind to the tested compounds

BdorOBP56h [9] = molecular target: T3, BdorOBP56h; assay: 1-NPN fluorescence competition; format: binding; conditions: 50 mM Tris-HCl pH 7.4, 25°C; 2 μM protein, 2 μM 1-NPN; competitive displacement
Procedure: 1-NPN fluorescence competition on BdorOBP56h | all remaining OBPs could bind to the tested compounds

BdorOBP83a-1 [10] = molecular target: T2, BdorOBP83a-1; assay: 1-NPN fluorescence competition; format: binding; conditions: 50 mM Tris-HCl pH 7.4, 25°C; 2 μM protein, 2 μM 1-NPN; competitive displacement

C/C=C(\C)C(=O)OCC [Ethyl tiglate]
pIC50 (BdorOBP83a-2 [1]): < 4.30 | pIC50 (BdorOBP83a-1 [2]): < 4.30 | pKd (BdorOBP83a-2 [3]): < 4.30 | pIC50 (BdorOBP56h [4]): < 4.30 | pKd (BdorOBP56h [4]): < 4.30 | pKd (BdorOBP83a-1 [5]): < 4.30

c1ccc2scnc2c1 [Benzothiazole]
pIC50 (BdorOBP83a-2 [1]): < 4.30 | pIC50 (BdorOBP83a-1 [2]): < 4.30 | pKd (BdorOBP83a-2 [3]): < 4.30 | pIC50 (BdorOBP84a-1 [6]): < 4.30 | pKd (BdorOBP84a-1 [6]): < 4.30 | pIC50 (BdorOBP56h [4]): < 4.30 | pKd (BdorOBP56h [4]): < 4.30 | pKd (BdorOBP83a-1 [5]): < 4.30

CCOC(C)=O [Ethyl acetate]
pIC50 (BdorOBP83a-2 [1]): < 4.30 | pIC50 (BdorOBP83a-1 [2]): < 4.30 | pKd (BdorOBP83a-2 [3]): < 4.30 | pIC50 (BdorOBP56h [4]): < 4.30 | pKd (BdorOBP56h [4]): < 4.30 | pKd (BdorOBP83a-1 [5]): < 4.30

C=CCc1ccc(OC)c(OC)c1 [methyl eugenol, 4-allyl-1,2-dimethoxybenzene]
pKd (BdorOBP83a-2 [7]): 4.47 | pKd (BdorOBP84a-1 [8]): 1.10 | pIC50 (BdorOBP83a-2 [1]): 4.29 | pIC50 (BdorOBP83a-1 [2]): < 4.30 | pKd (BdorOBP56h [9]): 3.24 | pIC50 (BdorOBP56h [4]): < 4.30 | pKd (BdorOBP83a-1 [10]): 2.60

CCCCCC1CCC(=O)O1 (stereo not shown) [γ-nonanoic lactone]
pKd (BdorOBP83a-2 [7]): 4.28 | pIC50 (BdorOBP83a-2 [1]): < 4.30 | pIC50 (BdorOBP84a-1 [6]): < 4.30 | pKd (BdorOBP84a-1 [6]): < 4.30 | pIC50 (BdorOBP56h [4]): < 4.30 | pKd (BdorOBP56h [4]): < 4.30 | pKd (BdorOBP83a-1 [10]): 1.07

CCOC(=O)c1ccccc1 [Ethyl benzoate]
pIC50 (BdorOBP83a-2 [1]): < 4.30 | pKd (BdorOBP83a-2 [3]): < 4.30 | pIC50 (BdorOBP84a-1 [6]): < 4.30 | pKd (BdorOBP84a-1 [6]): < 4.30 | pIC50 (BdorOBP56h [4]): < 4.30 | pKd (BdorOBP56h [4]): < 4.30
